# Test results reported in patent publication US20100249064A1, “METHODS AND COMPOSITIONS FOR TREATING DISEASES AND CONDITIONS INVOLVING HIGHER MOLECULAR WEIGHT HYALURONAN” (University of Chicago, priority 2007, published 2010).
# Tests used:
# [1] = system: CD44s, CD44v10, S1P1 and S1P3 receptors in lipid rafts; assay: CD44 isoform / S1P receptor recruitment and association in lipid raft (CEM) fractions; assay type: cell-based, human; details: for CD44 isoform association with S1P receptors in lipid rafts: 100 nM HA, immunoprecipitation from lipid raft fractions
# Description: Lipid Raft Isolation—Caveolin-enriched microdomain known as lipid rafts were isolated from human lung EC as described (Singleton and Bourguignon, 2004; Singleton et al., 2005). Materials insoluble in Triton X-100-insoluble were mixed with 0.6 ml of cold 60% Optiprep™ and then overlaid with 0.6 ml of 40%-20% Optiprep™. The resulting gradients were then centrifuged (35,000 rpm) in SW60 rotor for 12 h at 4° C. and different fractions were collected and analyzed. In some cases, different fractions were analyzed for total cholesterol content using a cholesterol assay kit (Amplex Red™, Invitrogen (Molecular Probes), Eugene, Oreg.).
# Immunoprecipitation and Immunoblotting—Cellular materials associated within the 20% Optiprep™ fractions (lipid raft fraction) were incubated with IP buffer A (50 mM HEPES (pH 7.5), 150 mM NaCl, 20 mM MgCl2, 1% Nonidet P-40 (NP-40), 0.4 mM Na3VO4, 40 mM NaF, 50 μM okadaic acid, 0.2 mM phenylmethylsulfonyl fluoride, 1:250 dilution of Calbiochem protease inhibitor mixture 3) or IP buffer B (50 mM HEPES (pH 7.5), 150 mM NaCl, 20 mM MgCl2, 1% Triton X-100, 0.1% SDS, 0.4 mM Na3VO4, 40 mM NaF, 50 μM okadaic acid, 0.2 mM phenylmethylsulfonyl fluoride, 1:250 dilution of Calbiochem protease inhibitor mixture 3) as indicated. The samples were then immunoprecipitated with anti-S1P1 receptor or anti-S1P3 receptor IgG followed by SDS-PAGE in 4-15% polyacrylamide gels, and transfer onto Immobilon™ membranes. Development occurred using specific primary and secondary antibodies. Enhanced chemiluminescence (Amersham Biosciences) for visualization of immunoreactive bands then took place.
# Determination of Complex Formation between S1P1 Receptor/CD44s and S1P3 Receptor/CD44v10—EC monolayers were serum-starved for one hour, then treated with High or Low MW HA (100 nM) (5-30 min.) and solubilized in IP buffer A (see above). Following immunoprecipitation with either rabbit anti-S1P1 receptor or mouse anti-S1P3 receptor antibody, the samples were subjected to SDS-PAGE in 4-15% polyacrylamide gels and transfer onto Immobilon™ membranes (Millipore Corp., Bedford, Mass.). Nonspecific sites were then blocked with 5% bovine serum albumin, and the blots were then incubated with either rat anti-CD44 (IM-7, common domain) antibody, rabbit anti-S1P1 antibody or mouse anti-S1P3 antibody followed by incubation with horseradish peroxidase (HRP)-labeled goat anti-rabbit, goat anti-mouse or goat anti-rat IgG. Enhanced chemiluminescence (Amersham Biosciences) for visualization of immunoreactive bands then took place.
# [2] = system: HPMVEC; assay: EC proliferation (CellTiter96 MTS); assay type: cell-based, human; details: 100 nM HA with or without 100 nM VEGF, or siRNA 48 hours then VEGF; 24 h
# Description: Determination of the role of HMW-HA/CD44 interactions in regulating hyaluronidase activity and angiogenesis in vitro. Human pulmonary microvascular EC (HPMVEC) (Cambrex), grown in EBM-2 complete medium (Cambrex) at 37° C. in a humidified atmosphere of 5% CO2, 95% air, with passages 6-10 used for experimentation was treated with or without 100 nM HMW-HA and/or 100 nM VEGF in the presence or absence of CD44 isoform-specific blocking antibodies (EMD Biosciences), siRNA (scramble, CD44, Hyal-1, Hyal-2, Hyal-3 or Hyal-4) and the potent hyaluronidase inhibitor, L-ascorbic acid 6-hexadecanoate (Botzki et al., 2004) (Sigma). […] Treated EC will either be analyzed for protein expression, hyaluronidase activity or VEGF-induced proliferation, migration or tube formation. […] Cells from the upper and lower chamber were quantitated using the CellTiter96™ MTS assay (Promega, San Luis Obispo, Calif.) and read at 492 nm. % migration was defined as the # of cells in the lower chamber […] the number of cells in both the upper and lower chamber. Each assay was set up in triplicate, repeated at least five times and analyzed statistically by Student's t test (with statistical significance set at P<0.05). […] The in vitro cell proliferation assay was analyzed by measuring increases in cell number using the CellTiter96™ MTS assay (Promega, San Luis Obispo, Calif.) and read at 492 nm. […]
Substance,"recruitment of CD44s to the lipid raft fraction ([1]; 100 nM HA, 5, 15 or 30 min)",CD44 isoform association with S1P receptors in lipid rafts [1],EC proliferation (% Proliferation) [2],"recruitment of CD44v10 to the lipid raft fraction ([1]; 100 nM HA, 5, 15 or 30 min)"
hyaluronan [HMW-HA],rapidly (5 min.) recruit CD44s to the lipid raft fraction,induced CD44s association in lipid rafts with S1P1,"inhibited VEGF-induced hyaluronidase expression, EC proliferation (A) and migration (B)",
"hyaluronan [LMW-HA, reference compound]",rapidly (5 min.) recruit CD44s to the lipid raft fraction,induced an initial CD44s association with S1P1 which was followed by CD44v10 association with S1P3 receptor in lipid raft fractions,promotes EC proliferation and migration,robust but delayed recruitment of CD44v10 (after 15 min.)
